The values below are quoted from earlier work in article PMC4957076, “Shared mechanism of teratogenicity of anti-angiogenic drugs identified in the chicken embryo model” (Scientific Reports, 2016).

For data set [1] the following is noted: human; cited from earlier work.
The subject of data set [2] is Mouse (strain specific) Rabbit. Also on record: method as in PMID 11006136. As to conditions: cited from earlier work.
The test system of the next data set is chicken embryos. Conditions: thalidomide not tested in this paper; cited from earlier work.

As to `O=C1CCC(N2C(=O)c3ccccc3C2=O)C(=O)N1` (stereo not shown) [Thalidomide, thalidomide], the “Clinical Toxicities” value in data set [1] was “Somnolence, constipation, neuropathy, venous thromboembolism and rash/unknown”. Besides, in data set [2], the Defects produced result is listed as “Increased resorptions, embryotoxicity, eye defects” and the “Systemic exposure (AUC) compared to human exposure” value is “At recommended human dose/Not applicable”. For the same compound, the “Defects produced in chicken embryos” value in the data set on chicken embryos was “Embryolethality, cranial hemorrhaging, micropthalmia, limb defects, spine”.
